Patent US8143293B2, “Kinase inhibitors useful for the treatment of myleoprolific diseases and other proliferative diseases” (Deciphera Pharmaceuticals, LLC, priority 2007, dated 2012)

Key:
[1] = target: T1, Abl kinase (SEQ ID NO: 1) (Homo sapiens, UniProt P00519); test: Abl kinase (SEQ ID NO:1) assay, pyruvate kinase/lactate dehydrogenase coupled; conditions: 2 h preincubation, ATP 500 μM; read-out: Biochemical IC50, Abl Enzyme Assay
T1 construct: purchased deCode Genetics
T1 sequence (P00519 with tags, fused parts or gaps): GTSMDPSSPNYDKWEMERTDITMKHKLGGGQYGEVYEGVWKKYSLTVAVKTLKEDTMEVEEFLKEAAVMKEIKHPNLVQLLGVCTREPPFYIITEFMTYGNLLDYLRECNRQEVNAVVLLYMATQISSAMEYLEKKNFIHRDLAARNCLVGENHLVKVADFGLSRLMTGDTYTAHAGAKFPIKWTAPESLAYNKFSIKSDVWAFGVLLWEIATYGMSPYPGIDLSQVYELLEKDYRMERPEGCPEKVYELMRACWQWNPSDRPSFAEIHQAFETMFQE
Outline: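 ADP formation was coupled to pyruvate kinase/lactate dehydrogenase, and NADH loss at 340 nm was followed continuously. Compounds were preincubated 2 h at 30° C before 500 μM ATP, and rates from 1.0–2.0 h gave % inhibition and IC50.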

[2] = target: T2, C-Met kinase (SEQ ID NO:10) (Homo sapiens, UniProt P08581); test: C-Met kinase (SEQ ID NO:10) assay, pyruvate kinase/lactate dehydrogenase coupled; conditions: 0.5 h preincubation, ATP 100 μM; read-out: Biochemical IC50, c-Met Enzyme Assay
T2 construct: 956-1390, from Invitrogen, catalogue #PV3143; His6 (N-terminal leader MSYYHHHHHH... with TEV and thrombin sites) (N); purchased Invitrogen PV3143
Outline: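 Human c-Met residues 956-1390 with polyE4Y substrate, pH 7.5; compounds preincubated 0.5 h at 22°C before 100 μM ATP start. ADP formation followed via pyruvate kinase/lactate dehydrogenase coupling as NADH loss at A340 for 2 h at 30°C; rate over 1.0–2.0 h, IC50 from percent-inhibition curves.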

[3] = target: T3, BaF3 cells transfected with T315I p210 BCR-Abl (Homo sapiens, UniProt P00519, T315I, cells depend on it); test: Ba/F3 p210 T315I whole cell proliferation assay; format: cell-based; conditions: 72 hours, Cell Titer Blue; read-out: Whole Cell Antiproliferation IC50, Ba/F3 p210 T315I whole cell proliferation assay
T3 construct: fused on or other part: P11274 (Breakpoint cluster region protein)

T2 sequence (P08581 with tags, fused parts or gaps): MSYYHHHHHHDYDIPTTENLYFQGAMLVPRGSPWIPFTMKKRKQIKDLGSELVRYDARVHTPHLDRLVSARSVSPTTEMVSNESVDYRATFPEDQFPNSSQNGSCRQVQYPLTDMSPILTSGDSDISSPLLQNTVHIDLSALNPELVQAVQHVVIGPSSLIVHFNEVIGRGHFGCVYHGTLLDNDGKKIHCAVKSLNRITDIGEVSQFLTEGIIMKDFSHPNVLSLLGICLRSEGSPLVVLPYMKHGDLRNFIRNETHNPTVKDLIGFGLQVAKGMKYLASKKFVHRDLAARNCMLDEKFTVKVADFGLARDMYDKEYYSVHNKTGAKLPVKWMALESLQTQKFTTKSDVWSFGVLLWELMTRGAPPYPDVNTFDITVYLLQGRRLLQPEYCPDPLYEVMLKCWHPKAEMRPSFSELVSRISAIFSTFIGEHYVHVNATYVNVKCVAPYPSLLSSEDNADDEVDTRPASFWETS

Row | IC50 [1] [nM] | IC50 [2] [nM] | GI50 [3] [nM] | Compound
1 | < 100 | < 1000 | < 100 | 1-(2-fluoro-4-(2-(1-methyl-1H-pyrazol-4-yl)pyridin-4-yloxy)phenyl)-3-(3-(1-methylcyclopentyl)isoxazol-5-yl)urea [Example 14]
2 | < 100 | < 1000 | < 100 | Cn1cc(-c2cc(Oc3ccc(NC(=O)Nc4cc(C(C)(C)C)no4)c(F)c3)ccn2)cn1 [Example 1, 1-(3-t-butylisoxazol-5-yl)-3-(2-fluoro-4-(2-(1-methyl-1H-pyrazol-4-yl)pyridin-4-yloxy)phenyl)urea]
3 | < 100 | < 1000 | < 100 | Cn1cc(-c2cc(Oc3ccc(NC(=O)Nc4cc(C(C)(C)C)nn4C)c(F)c3)ccn2)cn1 [Example 2, 1-(3-t-butyl-1-methyl-1H-pyrazol-5-yl)-3-(2-fluoro-4-(2-(1-methyl-1H-pyrazol-4-yl)pyridin-4-yloxy)phenyl)urea]
4 | < 100 | < 1000 | < 100 | Cn1cc(-c2cc(Oc3ccc(NC(=O)Nc4cccc(C(F)(F)F)c4)c(F)c3)ccn2)cn1 [Example 3, 1-(2-fluoro-4-(2-(1-methyl-1H-pyrazol-4-yl)pyridin-4-yloxy)phenyl)-3-(3-(trifluoromethyl)phenyl)urea]
5 | < 100 | < 10000 | < 100 | Cn1cc(-c2cc(Oc3ccc(NC(=O)Nc4cnn(C(C)(C)C)c4)c(F)c3)ccn2)cn1 [Example 5, 1-(1-t-butyl-1H-pyrazol-4-yl)-3-(2-fluoro-4-(2-(1-methyl-1H-pyrazol-4-yl)pyridin-4-yloxy)phenyl)urea]
6 | < 100 | < 10000 | < 100 | Cn1cc(-c2cc(Oc3ccc(NC(=O)Nc4cncc(C(F)(F)F)c4)cc3)ccn2)cn1 [Example 6, 1-(4-(2-(1-methyl-1H-pyrazol-4-yl)pyridin-4-yloxy)phenyl)-3-(5-(trifluoromethyl)pyridin-3-yl)urea]
7 | < 100 | < 1000 | < 100 | Cn1cc(-c2cc(Oc3ccc(NC(=O)Nc4cnn(C(C)(C)C)c4)c(F)c3F)ccn2)cn1 [Example 8, 1-(1-tert-butyl-1H-pyrazol-4-yl)-3-(2,3-difluoro-4-(2-(1-methyl-1H-pyrazol-4-yl)pyridin-4-yloxy)phenyl)urea]
8 | < 100 | < 10000 | < 1000 | Cn1cc(-c2cc(Oc3ccc(NC(=O)Nc4cnn(C(C)(C)C)c4C(F)(F)F)c(F)c3)ccn2)cn1 [Example 9, 1-(1-tert-butyl-5-(trifluoromethyl)-1H-pyrazol-4-yl)-3-(2-fluoro-4-(2-(1-methyl-1H-pyrazol-4-yl)pyridin-4-yloxy)phenyl)urea]
9 | < 100 | < 10000 | < 1000 | Cc1c(NC(=O)Nc2ccc(Oc3ccnc(-c4cnn(C)c4)c3)cc2F)cnn1C(C)(C)C [Example 10, 1-(1-tert-butyl-5-methyl-1H-pyrazol-4-yl)-3-(2-fluoro-4-(2-(1-methyl-1H-pyrazol-4-yl)pyridin-4-yloxy)phenyl)urea]
10 | < 100 | < 10000 | < 100 | Cn1cc(-c2cc(Oc3ccc(NC(=O)Nc4nnc(C(C)(C)C)s4)c(F)c3)ccn2)cn1 [Example 11, 1-(5-tert-butyl-1,3,4-thiadiazol-2-yl)-3-(2-fluoro-4-(2-(1-methyl-1H-pyrazol-4-yl)pyridin-4-yloxy)phenyl)urea]
11 | < 100 | < 10000 | < 100 | CN(C)CCn1nc(C(C)(C)C)cc1NC(=O)Nc1ccc(Oc2ccnc(-c3cnn(C)c3)c2)cc1F [Example 12, 1-(3-tert-butyl-1-(2-(dimethylamino)ethyl)-11H-pyrazol-5-yl)-3-(2-fluoro-4-(2-(1-methyl-1H-pyrazol-4-yl)pyridin-4-yloxy)phenyl)urea]
12 | < 100 | < 10000 | < 100 | Cn1cc(-c2cc(Oc3ccc(NC(=O)Nc4cnn(C5CCCC5)c4)c(F)c3)ccn2)cn1 [Example 15, 1-(1-cyclopentyl-1H-pyrazol-4-yl)-3-(2-fluoro-4-(2-(1-methyl-1H-pyrazol-4-yl)pyridin-4-yloxy)phenyl)urea]
13 | < 100 | < 1000 | < 100 | Cn1cc(-c2cc(Oc3ccc(NC(=O)Nc4cncc(C(F)(F)F)c4)c(F)c3)ccn2)cn1 [Example 21, 1-(2-fluoro-4-(2-(1-methyl-1H-pyrazol-4-yl)pyridin-4-yloxy)phenyl)-3-(5-(trifluoromethyl)pyridin-3-yl)urea]
14 | < 100 | < 1000 | < 100 | CC(C)c1cncc(NC(=O)Nc2ccc(Oc3ccnc(-c4cnn(C)c4)c3)cc2F)c1 [Example 22, 1-(2-fluoro-4-(2-(1-methyl-1H-pyrazol-4-yl)pyridin-4-yloxy)phenyl)-3-(5-isopropylpyridin-3-yl)urea]
15 | < 100 | < 100 | < 100 | Cn1cc(-c2cc(Oc3ccc(NC(=O)Nc4cc(C(C)(C)C)no4)c(F)c3F)ccn2)cn1 [Example 25, 1-(3-tert-butylisoxazol-5-yl)-3-(2,3-difluoro-4-(2-(1-methyl-1H-pyrazol-4-yl)pyridin-4-yloxy)phenyl)urea]
16 | < 100 | < 1000 | < 100 | Cn1cc(-c2cc(Oc3ccc(NC(=O)Nc4cc(C(F)(F)F)c[nH]c4=O)c(F)c3)ccn2)cn1 [Example 27, 1-(2-fluoro-4-(2-(1-methyl-1H-pyrazol-4-yl)pyridin-4-yloxy)phenyl)-3-(2-oxo-5-(trifluoromethyl)-1,2-dihydropyridin-3-yl)urea]
17 | < 100 | < 10000 | < 1000 | Cc1oc(C(C)(C)C)cc1NC(=O)Nc1ccc(Oc2ccnc(-c3cnn(C)c3)c2)cc1F [Example 28, 1-(5-tert-butyl-2-methylfuran-3-yl)-3-(2-fluoro-4-(2-(1-methyl-1H-pyrazol-4-yl)pyridin-4-yloxy)phenyl)urea]
18 | < 1000 | < 100000 | < 1000 | Cn1cc(-c2cc(Oc3ccc(NC(=O)Nc4cnc(C(C)(C)C)nc4N4CCOCC4)c(F)c3)ccn2)cn1 [Example 41, 1-(2-tert-butyl-4-morpholinopyrimidin-5-yl)-3-(2-fluoro-4-(2-(1-methyl-1H-pyrazol-4-yl)pyridin-4-yloxy)phenyl)urea]
19 | < 100 | < 1000 | < 100 | Cn1cc(-c2cc(Oc3ccc(NC(=O)Nc4cc(C(F)(F)F)cnc4-c4cnn(C)c4)c(F)c3)ccn2)cn1 [Example 42, 1-(2-fluoro-4-(2-(1-methyl-1H-pyrazol-4-yl)pyridin-4-yloxy)phenyl)-3-(2-(1-methyl-1H-pyrazol-4-yl)-5-(trifluoromethyl)pyridin-3-yl)urea]
